Results taken from patent US20070148262A1 (priority 2005, published 2007).

What was measured:
Salmonella cholerasuis = test: comparison of antibacterial effects: Green-zone A vs malic acid and grapefruit seed extract; format: cell-based; parameters: key: NBD: No Bacteria Detected; BD: Bacteria Detected; details: 5% organic matter dilution (yeast extract, hard water)
Method: The antibacterial effect of Green-zone A prepared in Example 1 was compared to the effect of each of malic acid and grapefruit seed extract alone.
A bacterial strain used in the test of antibacterial activity was Salmonella cholerasuis. The Salmonella strain was cultured in nutrient medium at 37° C. for 24 hours and used at a concentration of 5×10^8 cells/ml of the nutrient medium.
Green-zone A prepared in Example 1 was undiluted and diluted 2-fold and 5-fold with hard water. Meanwhile, a composition of 50 g malic acid completely dissolved in 200 ml of purified water, and a composition of 6 g grapefruit seed extract completely dissolved in 200 ml of distilled water, were undiluted and diluted 2-fold and 5-fold.
4 ml of the prepared Salmonella strain was mixed with 96 ml of 5% organic matter dilution (4° C., 5% yeast extract, pH 7.0, diluted with hard water). 2.5 ml of the mixture solution was taken and allowed to react at 4° C. for 30 minutes.
After completion of the reaction, 1 ml of the bacterial dilution was added and mixed with 9 ml of neutralizing medium (containing 5% horse serum inactivated in nutrient medium) at 37° C. Then, the mixture was added into test tubes containing 0.1 ml of each of nutrient media, and was proliferated in an incubator at 37° C. for 48 hours.
After completion of the proliferation, the […] was re-inoculated into blood medium and measured for the bactericidal activity of each of the compositions (Table 15).

[1] = test system: avian influenza viruses (AIV) (field isolate No. 02-8, virus strain K228); format: cell-based

For O=C(O)CC(O)C(=O)O (stereo not shown) [Malic acid, malic acid], the bactericidal activity (Salmonella cholerasuis; Original solution) was “NBD”, the bactericidal activity (Salmonella cholerasuis; dilution 1:2) was “BD” and the bactericidal activity (Salmonella cholerasuis; dilution 1:5) was “BD”. The “disinfectant effects up to dilutions of” value [1] was “no disinfectant effects”.
